Columns and labels:
[1] = test system: K. pneumoniae ATCC 10031 (SEN) and K. pneumoniae ATCC 700603 (MDR); test: Adaptive laboratory evolution (ALE), relative MIC of evolved lines; format: cell-based, Klebsiella pneumoniae
Procedure, shortened: (§1)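 Ten parallel populations per antibiotic–ancestor pair were evolved in MHB at 37 °C, starting near 50% growth-inhibiting drug. Every 72 h they were passaged into 0.5–2.5× increasing concentrations, keeping the highest-drug well with OD600 > 0.2.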

[2] = test system: A. baumannii ATCC 17978 (SEN) and A. baumannii ATCC BAA-1605 (MDR); test: as above; format: cell-based, Acinetobacter baumannii
Procedure, shortened: as §1

O=c1ccc2ncc(=O)n3c2n1C[C@H]3CN1CCC(NCc2cc3c(cn2)OCCC3)CC1 [Gepotidacin]
Relative MIC ([1]; KP-SEN (Klebsiella pneumoniae ATCC 10031), evolved line 1): 2048
Relative MIC ([1]; KP-SEN (Klebsiella pneumoniae ATCC 10031), evolved line 2): 2048
Relative MIC (log10) ([1]; KP-SEN (Klebsiella pneumoniae ATCC 10031), evolved line 2 adapted to the named antibiotic): 3.311
Relative MIC ([1]; KP-SEN (Klebsiella pneumoniae ATCC 10031), evolved line 3): 1024
Relative MIC (log10) ([1]; KP-SEN (Klebsiella pneumoniae ATCC 10031), evolved line 3 adapted to the named antibiotic): 3.0103
Relative MIC ([1]; KP-SEN (Klebsiella pneumoniae ATCC 10031), evolved line 4): 1024
Relative MIC ([1]; KP-SEN (Klebsiella pneumoniae ATCC 10031), evolved line 6): 2048
Relative MIC (log10) ([1]; KP-SEN (Klebsiella pneumoniae ATCC 10031), evolved line 6 adapted to the named antibiotic): 3.311
Relative MIC (log10) ([1]; KP-SEN (Klebsiella pneumoniae ATCC 10031), evolved line 7 adapted to the named antibiotic): 3.311
Relative MIC ([1]; KP-SEN (Klebsiella pneumoniae ATCC 10031), evolved line 8): 1024
Relative MIC ([1]; KP-SEN (Klebsiella pneumoniae ATCC 10031), evolved line 9): 1024
Relative MIC ([1]; KP-SEN, Klebsiella pneumoniae ATCC 10031, evolved line 1 versus ancestor): 2048
Relative MIC ([1]; KP-SEN, Klebsiella pneumoniae ATCC 10031, evolved line 2 versus ancestor): 2048
Relative MIC ([1]; KP-SEN, Klebsiella pneumoniae ATCC 10031, evolved line 3 versus ancestor): 1024
Relative MIC ([1]; KP-SEN, Klebsiella pneumoniae ATCC 10031, evolved line 4 versus ancestor): 1024
Relative MIC ([1]; KP-SEN, Klebsiella pneumoniae ATCC 10031, evolved line 5 versus ancestor): 1024
Relative MIC ([1]; KP-SEN, Klebsiella pneumoniae ATCC 10031, evolved line 6 versus ancestor): 2048
Relative MIC ([1]; KP-SEN, Klebsiella pneumoniae ATCC 10031, evolved line 7 versus ancestor): 2048
Relative MIC ([1]; KP-SEN, Klebsiella pneumoniae ATCC 10031, evolved line 8 versus ancestor): 1024
Relative MIC ([1]; KP-SEN, Klebsiella pneumoniae ATCC 10031, evolved line 9 versus ancestor): 1024
Relative MIC ([1]; KP-SEN, Klebsiella pneumoniae ATCC 10031, evolved line 5): 1024
Relative MIC ([1]; KP-SEN, Klebsiella pneumoniae ATCC 10031, evolved line 7): 2048
Relative MIC ([2]; AB-SEN (Acinetobacter baumannii ATCC 17978), evolved line 1): 64
Relative MIC (log10) ([2]; AB-SEN (Acinetobacter baumannii ATCC 17978), evolved line 1 adapted to the named antibiotic): 1.806
Relative MIC ([2]; AB-SEN (Acinetobacter baumannii ATCC 17978), evolved line 2): 128
Relative MIC ([2]; AB-SEN (Acinetobacter baumannii ATCC 17978), evolved line 3): 128
Relative MIC ([2]; AB-SEN (Acinetobacter baumannii ATCC 17978), evolved line 4): 64
Relative MIC (log10) ([2]; AB-SEN (Acinetobacter baumannii ATCC 17978), evolved line 4 adapted to the named antibiotic): 1.806
Relative MIC ([2]; AB-SEN (Acinetobacter baumannii ATCC 17978), evolved line 6): 128
Relative MIC (log10) ([2]; AB-SEN (Acinetobacter baumannii ATCC 17978), evolved line 7 adapted to the named antibiotic): 1.806
Relative MIC ([2]; AB-SEN (Acinetobacter baumannii ATCC 17978), evolved line 8): 64
Relative MIC (log10) ([2]; AB-SEN (Acinetobacter baumannii ATCC 17978), evolved line 8 adapted to the named antibiotic): 1.806
Relative MIC ([2]; AB-SEN (Acinetobacter baumannii ATCC 17978), evolved line 9): 64
Relative MIC (log10) ([2]; AB-SEN (Acinetobacter baumannii ATCC 17978), evolved line 9 adapted to the named antibiotic): 1.806
Relative MIC ([2]; AB-SEN (Acinetobacter baumannii ATCC 17978), evolved line 10): 64
Relative MIC ([2]; AB-SEN, Acinetobacter baumannii ATCC 17978, evolved line 1 versus ancestor): 64
Relative MIC ([2]; AB-SEN, Acinetobacter baumannii ATCC 17978, evolved line 2 versus ancestor): 128
Relative MIC ([2]; AB-SEN, Acinetobacter baumannii ATCC 17978, evolved line 3 versus ancestor): 128
Relative MIC ([2]; AB-SEN, Acinetobacter baumannii ATCC 17978, evolved line 4 versus ancestor): 64
Relative MIC ([2]; AB-SEN, Acinetobacter baumannii ATCC 17978, evolved line 6 versus ancestor): 128
Relative MIC ([2]; AB-SEN, Acinetobacter baumannii ATCC 17978, evolved line 7 versus ancestor): 64
Relative MIC ([2]; AB-SEN, Acinetobacter baumannii ATCC 17978, evolved line 8 versus ancestor): 64
Relative MIC ([2]; AB-SEN, Acinetobacter baumannii ATCC 17978, evolved line 9 versus ancestor): 64
Relative MIC ([2]; AB-SEN, Acinetobacter baumannii ATCC 17978, evolved line 10 versus ancestor): 64
Relative MIC ([2]; AB-SEN, Acinetobacter baumannii ATCC 17978, evolved line 7): 64

Reference: paper PMC11845477, “Exploring the principles behind antibiotics with limited resistance” (Nature Communications, 2025)
